The record followed here is US20240368150A1 (Hoffmann-La Roche Inc., priority 2021, published 2024).

Like-named read-outs stand apart in the source and are kept apart here.

In test [1] the test system is primary human T-cells. Kind of test: Proliferation assay after 5 days (CellTiter-Glo, CD3 stimulation; PBS counter screen). The test is classed as cell-based. As to conditions: Homo sapiens, T-cell, 120 h, CD3 stimulation; for Emax: 5 days, normalized to reference compound A1 as stimulator control = 100%, DMSO neutral control, read-out: Emax proliferation (% activation); for EC50: primary human T-cells, CellTiter-Glo after 5 days, EC50 of fitted sigmoidal curve, read-out: Tcell Proliferation CD3 EC50. The method in brief:
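Luminescent ATP detection (CellTiter-Glo 2.0) quantified cell number 5 days after compounds went onto medium-only plates. Wells showing visible toxicity or precipitate were noted beforehand, and compounds that stimulated unstimulated cells or lowered viability were flagged.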

In test [2] the test system is primary human T-cells.

As for `CN(CCO)CC(C)(C)c1nnc(-c2cc3c(cc2F)S(=O)(=O)C[C@H](N)C(=O)N3Cc2ccc(Cl)cc2)o1` [Example 139, (3R)-3-amino-5-[(4-chlorophenyl)methyl]-8-fluoro-7-[5-[2-[2-hydroxyethyl(methyl)amino]-1,1-dimethyl-ethyl]-1,3,4-oxadiazol-2-yl]-1,1-dioxo-2,3-dihydro-1λ^6,5-benzothiazepin-4-one], in the test on primary human T-cells [1], the Emax is 102% and the EC50 was determined as 3.4 µM. The compound also had an EC50 in the test with primary human T-cells [2] of 4 µM.

`Cc1cc2c(cc1-c1nnc(C3CN(C)CC(F)(F)C3)o1)N(Cc1ccc(Cl)cc1)C(=O)[C@@H](N)CS2(=O)=O` (stereo partly drawn) [Example 524, (3R)-3-amino-5-[(4-chlorophenyl)methyl]-7-[5-(5,5-difluoro-1-methyl-3-piperidyl)-1,3,4-oxadiazol-2-yl]-8-methyl-1,1-dioxo-2,3-dihydro-1λ^6,5-benzothiazepin-4-one]: in the test on primary human T-cells [1], the Emax was determined as 80% and the EC50 stood at 4.27 µM. Also, the EC50 in the test with primary human T-cells [2] is more than 10 µM.

As to `N[C@H]1CS(=O)(=O)c2cc(F)c(-c3noc(C4(C(F)(F)F)CC4)n3)cc2N(Cc2ccc(Cl)cc2)C1=O` [Example 318, (3R)-3-amino-5-[(4-chlorophenyl)methyl]-8-fluoro-1,1-dioxo-7-[5-[1-(trifluoromethyl)cyclopropyl]-1,2,4-oxadiazol-3-yl]-2,3-dihydro-1λ^6,5-benzothiazepin-4-one], the Emax in the test on primary human T-cells [1] was found to be 140%. For the same compound, the figures for the EC50 in the test with primary human T-cells [1] and in the test with primary human T-cells [2] were 0.255 µM and 0.55 µM, respectively.

As to `Cc1nnc(-c2nc(-c3cc4c(cc3F)S(=O)(=O)C[C@H](N)C(=O)N4Cc3ccc(OC(F)(F)F)cc3)no2)o1` [Example 334, (3R)-3-amino-8-fluoro-7-[5-(5-methyl-1,3,4-oxadiazol-2-yl)-1,2,4-oxadiazol-3-yl]-1,1-dioxo-5-[[4-(trifluoromethoxy)phenyl]methyl]-2,3-dihydro-1λ^6,5-benzothiazepin-4-one], in the test with primary human T-cells [1], the Emax turned out to be 80% and the EC50 turned out to be 0.345 µM. Moreover, the EC50 in the test with primary human T-cells [2] is 0.239 µM.

In the case of `N[C@H]1CS(=O)(=O)c2cc(F)c(-c3nnc(N4CC5(CCC5)C4)o3)cc2N(Cc2ccc(Cl)cc2)C1=O` [Example 474], the Emax with primary human T-cells [1] worked out at 138%. Moreover, the results for the EC50 in the test on primary human T-cells [1] and in the test with primary human T-cells [2] were 0.135 µM and 0.251 µM, respectively.

On to `CC1(Nc2nc(-c3cc4c(cc3F)S(=O)(=O)C[C@H](N)C(=O)N4Cc3ccc(Cl)cc3)no2)CC(F)(F)C1` [Example 201, (3R)-3-amino-5-[(4-chlorophenyl)methyl]-7-[5-[(3,3-difluoro-1-methyl-cyclobutyl)amino]-1,2,4-oxadiazol-3-yl]-8-fluoro-1,1-dioxo-2,3-dihydro-1λ^6,5-benzothiazepin-4-one], for which, in the test with primary human T-cells [1], the Emax came to 156% and the EC50 was determined as 0.229 µM. The EC50 with primary human T-cells [2] is 0.828 µM.

Turning to `N[C@H]1CS(=O)(=O)c2ccc(-c3nnc(-c4ccccc4)o3)cc2N(Cc2ccc(Cl)cc2)C1=O` [Example 374, (3R)-3-amino-5-[(4-chlorophenyl)methyl]-1,1-dioxo-7-(5-phenyl-1,3,4-oxadiazol-2-yl)-2,3-dihydro-1λ^6,5-benzothiazepin-4-one], the Emax in the test on primary human T-cells [1] amounted to 52%. In addition, the EC50 was more than 10 µM in the test with primary human T-cells [1] and 15.1 µM in the test on primary human T-cells [2].

Turning to `Cc1ccc(-c2nnc(-c3cc4c(cc3F)S(=O)(=O)C[C@H](N)C(=O)N4Cc3ccc(Cl)cc3)o2)nc1` [Example 129, (3R)-3-amino-5-[(4-chlorophenyl)methyl]-8-fluoro-7-[5-(5-methyl-2-pyridyl)-1,3,4-oxadiazol-2-yl]-1,1-dioxo-2,3-dihydro-1λ^6,5-benzothiazepin-4-one], in the test on primary human T-cells [1], the Emax came out at 106% and the EC50 worked out at 1.42 µM. In the test with primary human T-cells [2], this compound returned an EC50 of 1.9 µM.

As for `CC(=O)N1CCC(n2nnc(-c3cc4c(cc3F)S(=O)(=O)C[C@H](N)C(=O)N4Cc3ccc(Cl)cc3)n2)CC1` [Example 11, (3R)-7-[2-(1-acetyl-4-piperidyl)tetrazol-5-yl]-3-amino-5-[(4-chlorophenyl)methyl]-8-fluoro-1,1-dioxo-2,3-dihydro-1λ^6,5-benzothiazepin-4-one], in the test with primary human T-cells [1], the Emax was 107% and the EC50 was determined as 1.36 µM. Besides, the EC50 with primary human T-cells [2] was found to be 1.3 µM.

On to `CC(C)(C#N)c1nnc(-c2cc3c(cc2F)S(=O)(=O)C[C@H](N)C(=O)N3Cc2ccc(OC(F)(F)F)cc2)o1` [Example 59], for which, in the test on primary human T-cells [1], the Emax amounted to 94% and the EC50 stood at 0.0545 µM. In the test with primary human T-cells [2], this compound returned an EC50 of 0.0799 µM.

As for `COC(=O)N1CCCC(c2nnc(-c3cc4c(cc3F)S(=O)(=O)C[C@H](N)C(=O)N4Cc3ccc(Cl)cc3)o2)C1` (stereo partly drawn) [Example 165, methyl 3-[5-[(3R)-3-amino-5-[(4-chlorophenyl)methyl]-8-fluoro-1,1,4-trioxo-2,3-dihydro-1λ^6,5-benzothiazepin-7-yl]-1,3,4-oxadiazol-2-yl]piperidine-1-carboxylate], in the test on primary human T-cells [1], the Emax is 85% and the EC50 is 0.309 µM. In the test on primary human T-cells [2], this compound showed an EC50 of 0.458 µM.

Take `Cc1nc(F)ccc1-c1nnc(-c2cc3c(cc2F)S(=O)(=O)C[C@H](N)C(=O)N3Cc2ccc(Cl)cc2)o1` [Example 131, (3R)-3-amino-5-[(4-chlorophenyl)methyl]-8-fluoro-7-[5-(6-fluoro-2-methyl-3-pyridyl)-1,3,4-oxadiazol-2-yl]-1,1-dioxo-2,3-dihydro-1λ^6,5-benzothiazepin-4-one]: the Emax in the test with primary human T-cells [1] amounted to 192%. Besides, the figures for the EC50 in the test on primary human T-cells [1] and in the test with primary human T-cells [2] were 0.347 µM and 0.376 µM, respectively.

In the case of `CC1(c2nc(-c3cc4c(cc3F)S(=O)(=O)C[C@H](N)C(=O)N4Cc3ccc(Cl)cc3)no2)CCN(CC(F)(F)F)CC1` [Example 309, (3R)-3-amino-5-[(4-chlorophenyl)methyl]-8-fluoro-7-[5-[4-methyl-1-(2,2,2-trifluoroethyl)-4-piperidyl]-1,2,4-oxadiazol-3-yl]-1,1-dioxo-2,3-dihydro-1λ^6,5-benzothiazepin-4-one], the Emax in the test with primary human T-cells [1] is 202%. In the test with primary human T-cells [2], this compound displayed an EC50 of 0.443 µM.

As to `N[C@H]1CS(=O)(=O)c2cc(F)c(-c3noc(N4CCNC(C(F)(F)F)C4)n3)cc2N(Cc2ccc(Cl)cc2)C1=O` (stereo partly drawn) [Example 198, (3R)-3-amino-5-[(4-chlorophenyl)methyl]-8-fluoro-1,1-dioxo-7-[5-[3-(trifluoromethyl)piperazin-1-yl]-1,2,4-oxadiazol-3-yl]-2,3-dihydro-1λ^6,5-benzothiazepin-4-one], the Emax with primary human T-cells [1] worked out at 112%. The EC50 with primary human T-cells [1] amounted to 0.332 µM; in the test with primary human T-cells [2], 0.562 µM.

In the case of `CC(C)(C)c1nnc(-c2ccc3c(c2)N(Cc2ccc(Oc4ccc(C(F)(F)F)cn4)cc2)C(=O)[C@@H](N)CS3(=O)=O)o1` [Example 440, (3R)-3-amino-7-(5-tert-butyl-1,3,4-oxadiazol-2-yl)-1,1-dioxo-5-[[4-[[5-(trifluoromethyl)-2-pyridyl]oxy]phenyl]methyl]-2,3-dihydro-1λ^6,5-benzothiazepin-4-one], the Emax in the test on primary human T-cells [1] came out at 110%. For the same compound, the values for the EC50 with primary human T-cells [1] and in the test on primary human T-cells [2] were 2.52 µM and 2.51 µM, respectively.

As to `CC(=O)N1CC(c2nnc(-c3cc4c(cc3F)S(=O)(=O)C[C@H](N)C(=O)N4Cc3ccc(Cl)cc3)o2)C2(CC2)C1` (stereo partly drawn) [Example 175, (3R)-7-[5-(5-acetyl-5-azaspiro[2.4]heptan-7-yl)-1,3,4-oxadiazol-2-yl]-3-amino-5-[(4-chlorophenyl)methyl]-8-fluoro-1,1-dioxo-2,3-dihydro-1λ^6,5-benzothiazepin-4-one], in the test on primary human T-cells [1], the Emax came to 62% and the EC50 was found to be 7.04 µM. Besides, the EC50 with primary human T-cells [2] is more than 10 µM.

Consider `CC(N)(c1nnc(-c2cc3c(cc2F)S(=O)(=O)C[C@H](N)C(=O)N3Cc2ccc(Cl)cc2)o1)C(F)(F)F` (stereo partly drawn) [Example 127, (3R)-3-amino-7-[5-(1-amino-2,2,2-trifluoro-1-methyl-ethyl)-1,3,4-oxadiazol-2-yl]-5-[(4-chlorophenyl)methyl]-8-fluoro-1,1-dioxo-2,3-dihydro-1λ^6,5-benzothiazepin-4-one], for which, in the test on primary human T-cells [1], the Emax amounted to 110% and the EC50 was 0.181 µM. Further, the EC50 with primary human T-cells [2] was 0.232 µM.

Regarding `COC(C#N)c1nnc(-c2ccc3c(c2)N(Cc2ccc(Cl)cc2)C(=O)[C@@H](N)CS3(=O)=O)o1` (stereo partly drawn) [Example 370, 2-[5-[(3R)-3-amino-5-[(4-chlorophenyl)methyl]-1,1,4-trioxo-2,3-dihydro-1λ^6,5-benzothiazepin-7-yl]-1,3,4-oxadiazol-2-yl]-2-methoxy-acetonitrile], in the test on primary human T-cells [1], the Emax turned out to be 31%. Further, the values for the EC50 in the test on primary human T-cells [1] and in the test on primary human T-cells [2] were more than 10 µM and 5.1 µM, respectively.

For the compound `COC(F)(c1nc(-c2cc3c(cc2F)[S+]([O-])C[C@H](N)C(=O)N3Cc2ccc(F)cc2)no1)C(F)(F)F` (stereo partly drawn) [Example 514, (3R)-3-amino-8-fluoro-5-[(4-fluorophenyl)methyl]-1-oxo-7-[5-(1,2,2,2-tetrafluoro-1-methoxy-ethyl)-1,2,4-oxadiazol-3-yl]-2,3-dihydro-1λ^4,5-benzothiazepin-4-one], in the test on primary human T-cells [1], the Emax is 105% and the EC50 came out at 1.95 µM. In addition, the EC50 with primary human T-cells [2] came out at 1.92 µM.

With `N[C@H]1CS(=O)(=O)c2cc(F)c(-c3nnc(N4CCC4)o3)cc2N(Cc2ccc(Cl)cc2)C1=O` [Example 191, (3R)-3-amino-7-[5-(azetidin-1-yl)-1,3,4-oxadiazol-2-yl]-5-[(4-chlorophenyl)methyl]-8-fluoro-1,1-dioxo-2,3-dihydro-1λ^6,5-benzothiazepin-4-one], the Emax in the test with primary human T-cells [1] is 184%. Further, the EC50 in the test with primary human T-cells [1] turned out to be 1.28 µM; with primary human T-cells [2] it was 11.4 µM.

In the case of `N[C@H]1CS(=O)(=O)c2cc(F)c(-c3nnc(C4CN(CCO)CC(F)(F)C4)o3)cc2N(Cc2ccc(Cl)cc2)C1=O` (stereo partly drawn) [Example 152, (3R)-3-amino-5-[(4-chlorophenyl)methyl]-7-[5-[5,5-difluoro-1-(2-hydroxyethyl)-3-piperidyl]-1,3,4-oxadiazol-2-yl]-8-fluoro-1,1-dioxo-2,3-dihydro-1λ^6,5-benzothiazepin-4-one], the Emax in the test with primary human T-cells [1] was determined as 78%. For the same compound, the EC50 was 0.549 µM in the test on primary human T-cells [1] and 0.477 µM in the test on primary human T-cells [2].
